Assay results from patent publication US7718700B2, “Growth factor-binding compounds and methods of use” (Yale University, priority 2004, dated 2010).

Columns and labels:
[1] = test system: IGF-1-stimulated Erk1, Erk2, Akt and STAT3 phosphorylation; experiment: IGF-1-stimulated phosphorylation of Erk1/2, Akt and STAT3 in IGF-1R/NIH 3T3 cells; assay type: cell-based, mouse; settings: GFB204 10 μM
Method: FIGS. 3A and 3B show the effect of GFB204 on growth factor stimulated Erk1, Erk2, Akt, and STAT3 phosphorylation. GFB204 inhibits VEGF and PDGF stimulation of Flk-1 tyrosine phosphorylation and Erk1/Erk2 phosphorylation (FIG. 3A). NIH 3T3 cells or Flk-1/NIH 3T3 cells were treated with increasing concentrations of GFB204 for 5 minutes prior to stimulation with PDGFBB (10 ng/ml) or VEGF (50 ng/ml), respectively, for 10 minutes. The cells were then lysed and processed for SDS-PAGE Western blotting with an antibody specific for phosphotyrosine-Flk-1 or anti-phosphotyrosine for PDGFR tyrosine phosphorylation or phospho-Erk1/2. GFB204 effects on growth factor-stimulated Erk1, Erk2, Akt and STAT3 phosphorylation (FIG. 3B). NIH 3T3, Flk-1/NIH 3T3, IGF-1R/NIH 3T3 or EGFR/NIH 3T3 cells were treated with GFB204 (10 μM) prior to stimulation with PDGF (NIH 3T3) VEGF (Flk-1/NIH 3T3), EGF (EGFR/NIH 3T3), bFGF (NIH 3T3) or IGF-1 (IGF-1R/NIH 3T3). The cells were then harvested and processed for SDS-PAGE Western blotting with antibodies specific for phospho-Erk1/2, phospho-Akt and phospho-STAT3.
Growth factor-mediated stimulation of phosphorylation of Erk1/2, Akt and STAT3. […]

[2] = test system: A-549 xenografts; experiment: CD31 IHC microvessel count in A-549 xenograft tumors; assay type: in vivo, nude mice; settings: 5 mg/Kg, tumors processed two hours after last i.p. injection
Method: FIGS. 7A-7B illustrates CD31 IHC staining as described under Materials and Methods for tumors processed two hours after the last i.p. injection for a control (FIG. 7A) and GFB204 (FIG. 7B). Quantification of microvessels density (400×) was determined as described under Materials and Methods. SE, standard error. FIGS. 7A and 7B Microvessel Count; FIG. 7A=11.3±1.9; FIG. 7B=2.6±0.9.
IHC study. On the termination day of antitumor experiments, the tumors were extracted and fixed in 10% neutral buffered formalin for 6 hours. After fixation, the tissue samples were processed into paraffin blocks. Tissue sections (4 μm thick) were obtained from the parablocks and stained with hematoxylin and eosin (H&E) using standard histological techniques. Tissue sections were also subjected to immunostaining for CD31 (BD Biosciences, San Diego, Calif.) using the avidin biotin peroxidase complex technique (Blaskovich, M. A. et al. Nat Biotechnol, 2000, 18:1065-70). Mouse monoclonal antibody was used at 1:50 dilution, following microwave antigen retrieval (four cycles of 5 minutes each on high in 0.1M citrate buffer).

[3] = molecular target: T1, VEGF (Homo sapiens, UniProt P15692); experiment: Tryptophan fluorescence titration of VEGF; assay type: binding; settings: emission at 334 nm
T1 sequence (P15692 27-191 isoform P15692-4): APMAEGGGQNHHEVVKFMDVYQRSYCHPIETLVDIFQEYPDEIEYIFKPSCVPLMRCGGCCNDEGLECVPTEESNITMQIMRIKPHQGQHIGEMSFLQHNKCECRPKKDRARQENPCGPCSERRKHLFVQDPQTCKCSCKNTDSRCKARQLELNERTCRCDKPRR
Method: FIGS. 2D and 2E illustrate that GFB-204 binds PDGF and VEGF as indicated by growth factor tryptophan when increased amounts of GFB204 were added to PDGF and VEGF, respectively. The fluorescence was monitored by excitation at 295 nm and 228 nm, respectively, and emission at 334 nm.
Both VEGF and PDGF contain tryptophans that fluoresce at […] when excited at […].

[4] = test system: A-549 xenografts; experiment: Antitumor activity in the nude mouse A-549 tumor xenograft model; assay type: in vivo, nude mice; settings: for average tumor size: 3 weeks
Method: FIG. 6 illustrates that GFB204 inhibits A-549 xenografts growth in nude mice (FIG. 6). A-549 cells were implanted into the flanks of nude mice and when the tumors reached an average size of about 100 mm^3, the mice were randomized and treated either with vehicle (♦) or GFB204 at 1 mg/kg (▪) and 5 mg/kg (●), and tumor sizes measured as described under Materials and Methods. Tumors were processed two hours after the last i.p. injection for CD31 IHC staining as described under Materials and Methods.
Antitumor activity in the nude mouse tumor xenograft model. Nude mice (Charles River, Wilmington, Mass.) were maintained in accordance with the Institutional Animal Care and Use Committee (IACUC) procedures and guidelines. A-549 cells were harvested and resuspended in PBS, then injected s.c. into the right and left flanks (10×10^6 cells per flank) of 8 week old female nude mice as reported previously (Sun, J. et al. Cancer Res, 1999, 59:4919-26). When tumors reached about 100 mm^3, animals were dosed i.p. with 0.2 ml solution once daily. Control animals received a vehicle whereas treated animals were injected with GFB204 (1 or 5 mg/kg/day). The tumor volumes were determined by measuring the length (l) and the width (w) and calculating the volume (V=lw^2/2) as described previously (Sun, J. et al. Cancer Res, 1999, 59:4919-26). Statistical significance between control and treated animals were evaluated using Student's t-test.

CCCCOc1c2cc(C(=O)Nc3cc(C(=O)O)cc(C(=O)OCc4ccccc4)c3)cc1Cc1cc(C(=O)Nc3cc(C(=O)O)cc(C(=O)OCc4ccccc4)c3)cc(c1OCCCC)Cc1cc(C(=O)Nc3cc(C(=O)O)cc(C(=O)OCc4ccccc4)c3)cc(c1OCCCC)Cc1cc(C(=O)Nc3cc(C(=O)O)cc(C(=O)OCc4ccccc4)c3)cc(c1OCCCC)C2 [GFB204]
IGF-1-stimulation of the phosphorylation of Erk1, Erk2, Akt and STAT3 [1]: had little effect and not
microvessels per field (400×), CD31 staining [2]: 2.6±0.9
binding to VEGF by tryptophan fluorescence titration [3]: binds both PDGF and VEGF
average tumor size ([4]; 1 mg/kg i.p. once daily): 650±114 mm^3
tumor growth inhibition ([4]; 1 mg/kg, not statistically significant): 15%
average tumor size ([4]; 5 mg/kg i.p. once daily): 284±108 mm^3
tumor growth inhibition ([4]; 5 mg/kg, statistically significant (p<0.05)): 73%
